Source: article PMC11879280, “Antimicrobial activity of peptoids against Metallo-β-lactamase-producing Klebsiella pneumoniae, Acinetobacter baumannii, Pseudomonas aeruginosa, and other WHO priority pathogens, including Candida auris” (Journal of Applied Microbiology, 2025)
≈ marks a conversion by molar mass, not a printed value. Where two headings read alike, the source gives them in different places. Square brackets hold non-standard residues; d marks the D form. Peptide text beside a SMILES is read from it. Nspe = C[C@H](NCC(=O)O)c1ccccc1; NDecylGly = CCCCCCCCCCNCC(=O)O; Nlys = NCCCCNCC(=O)O

Tests used:
C. auris CBS12373 = test: Broth microdilution MIC; type: cell-based, Candida auris
[1] = tested on: ESKAPEE pathogens (all bacteria); test: Geometric mean MIC, therapeutic index and selectivity ratio, all bacteria; type: cell-based; settings: across the 23 ESKAPEE strains
Procedure: (§1) Briefly, bacteria were suspended in cation-adjusted Mueller–Hinton broth (CAMHB; Oxoid, UK) for antibiotics, or MHB (Oxoid, UK) for peptidomimetics to obtain 5 × 10^5 colony forming unit (CFU) ml^−1. […] Positive controls contained only microbes, and blanks contained only media. Microbial suspensions (100 µl) were added to wells, plates wrapped, and incubated at 37°C, 120 rpm for 16–20 h. After incubation, suspensions were removed, log10 diluted, and plated on Trypticase Soya Agar with phosphatidylcholine and Tween 80 to determine minimum bactericidal or fungicidal concentration (MBC or MFC). […] Geometric mean MIC of the peptoids were calculated to evaluate the broad overview of antimicrobial activity across the pathogens.
(§2) The therapeutic indices (TIs) of the compounds were calculated with the use of following formula: […]

Enterobacteriaceae = test: Geometric mean MIC, therapeutic index and selectivity ratio, Enterobacteriaceae; type: cell-based; settings: Enterobacteriaceae (E. coli, K. pneumoniae, and E. aerogenes)
Procedure: as §1, §2

MBL-producing bacteria = test: Geometric mean MIC, therapeutic index and selectivity ratio, MBL-producing bacteria; type: cell-based
Procedure: as §1
The test was performed as per the manufacturer’s instructions. Briefly, the strips were applied to a lawn culture of bacteria maintained at 1.5 × 10^8 CFU ml^−1 on Mueller–Hinton agar (Oxoid, UK) and incubated for 20 h at 37°C.
as §2

[2] = tested on: horse red blood cells (RBCs); test: Haemolysis assay; type: cell-based
Procedure: The haemolytic activity of the peptidomimetics was performed to determine mammalian cell safety. This assay used horse red blood cells (RBCs) (Sigma–Aldrich, USA) as described previously (Willcox et al. [2008], Chongsiriwatana et al. [2017], Yasir et al. [2019b]). RBCs were washed three times with PBS at 470 g for 5 min. Peptoids (0.5–250 μg ml^−1) were prepared in PBS and added to washed RBCs, then incubated at 37°C for 4 h. After incubation, cells were centrifuged at 1057 g for 10 min, and the supernatant’s OD at 540 nm was measured for lysis. PBS-only RBCs served as the negative control (no haemolysis), and Milli-Q water-treated RBCs as the positive control (100% lysis). Percent haemolysis was calculated as: (ODT − ODNC)/(ODPC − ODNC) × 100, where ODT, ODNC, and ODPC are the absorbances of the test, negative, and positive controls, respectively. This experiment was performed in triplicate.

A. baumannii 005 = tested on: A. baumannii 005
Summary of the method: (§3)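 Incubation 37°C, 120 rpm, 16–20 h, starting from 5 × 10^5 CFU/ml in MHB (peptidomimetics) or cation-adjusted MHB (antibiotics). Bactericidal/fungicidal endpoints came from log10-diluted wells plated on Trypticase Soya Agar containing phosphatidylcholine and Tween 80; MICs also summarised as geometric means.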

A. baumannii 006 = tested on: A. baumannii 006
Summary of the method: as §3

A. baumannii ATCC 19 606 = tested on: A. baumannii ATCC 19 606
Summary of the method: as §3

E. coli 0011 = tested on: E. coli 0011
Summary of the method: as §3

En. cloacae 001 = tested on: En. cloacae 001
Summary of the method: as §3

En. cloacae 005 = tested on: En. cloacae 005
Summary of the method: as §3

[3] = tested on: Enteroc. faecalis NCTC 13 379
Summary of the method: as §3

K. pneumoniae JIE2713 = tested on: K. pneumoniae JIE2713
Summary of the method: as §3

K. pneumoniae JIE4212 = tested on: K. pneumoniae JIE4212
Summary of the method: as §3

P. aeruginosa AR-1270 = tested on: P. aeruginosa AR-1270
Summary of the method: as §3

S. aureus 105 = tested on: S. aureus 105
Summary of the method: as §3

S. aureus 117 = tested on: S. aureus 117
Summary of the method: as §3

S. aureus 38 = tested on: S. aureus 38
Summary of the method: as §3

[4] = CBS 12 373, RPMI 1640 with MOPS, 5 × 10^3 CFU ml^−1, ≥90% reduction (≥50% for fluconazole)
[5] = horse RBCs in PBS, 37°C, 4 h, OD 540 nm, triplicate, best fit curve
[6] = horse RBCs in PBS, 37°C, 4 h, value in brackets
[7] = A. baumannii 005, MHB (melimine/Mel4 with 0.2% BSA, 0.01% acetic acid), mean MIC
[8] = A. baumannii 006, MHB (melimine/Mel4 with 0.2% BSA, 0.01% acetic acid), mean MIC
[9] = A. baumannii ATCC 19 606, MHB (melimine/Mel4 with 0.2% BSA, 0.01% acetic acid), mean MIC
[10] = E. coli 0011, MHB (melimine/Mel4 with 0.2% BSA, 0.01% acetic acid), mean MIC
[11] = En. cloacae 001, MHB (melimine/Mel4 with 0.2% BSA, 0.01% acetic acid), mean MIC
[12] = En. cloacae 005, MHB (melimine/Mel4 with 0.2% BSA, 0.01% acetic acid), mean MIC
[13] = Enteroc. faecalis NCTC 13 379, MHB (melimine/Mel4 with 0.2% BSA, 0.01% acetic acid), mean MIC
[14] = K. pneumoniae JIE2713, MHB (melimine/Mel4 with 0.2% BSA, 0.01% acetic acid), mean MIC
[15] = K. pneumoniae JIE4212, MHB (melimine/Mel4 with 0.2% BSA, 0.01% acetic acid), mean MIC
[16] = P. aeruginosa AR-1270, MHB (melimine/Mel4 with 0.2% BSA, 0.01% acetic acid), mean MIC
[17] = S. aureus 105, MHB (melimine/Mel4 with 0.2% BSA, 0.01% acetic acid), mean MIC
[18] = S. aureus 117, MHB (melimine/Mel4 with 0.2% BSA, 0.01% acetic acid), mean MIC
[19] = S. aureus 38, MHB (melimine/Mel4 with 0.2% BSA, 0.01% acetic acid), mean MIC
[20] = CBS 10 913, RPMI 1640 with MOPS, 5 × 10^3 CFU ml^−1, ≥90% reduction (≥50% for fluconazole)

## C[C@@H](c1ccccc1)N(CC(N)=O)C(=O)CN(CCCCN)C(=O)CN(C(=O)CN(C(=O)CN(CCCCN)C(=O)CN(C(=O)CN(C(=O)CN(CCCCN)C(=O)CN(C(=O)CN(C(=O)CNCCCCN)[C@@H](C)c1ccccc1)[C@@H](C)c1ccccc1)[C@@H](C)c1ccccc1)[C@@H](C)c1ccccc1)[C@@H](C)c1ccccc1)[C@@H](C)c1ccccc1 [TM6] (H-[Nlys][Nspe][Nspe][Nlys][Nspe][Nspe][Nlys][Nspe][Nspe][Nlys][Nspe]-NH2)
C. auris CBS12373; [4]
  MIC against C. auris: 2 µg/mL
C. auris CBS12373; CBS 12 373, value in brackets
  MIC against C. auris: 1.2 µM
[1]
  Geometric mean MIC, all bacteria: 17.6 µg/mL
[1]; value in brackets
  Geometric mean MIC, all bacteria: 10.6 µM
Enterobacteriaceae
  Geometric mean MICE: 29.1 µg/mL
MBL-producing bacteria
  Geometric mean MICMBL: 18.6 µg/mL
[2]; [5]
  HD10 (10% haemolytic dose): 43.2 µg/mL
  HD50 (50% haemolytic dose): > 256 µg/mL
[2]; [6]
  HD10 (10% haemolytic dose): 26.1 µmol/L
  HD50 (50% haemolytic dose): > 154.4 µmol/L
A. baumannii 005; [7]
  MIC of peptidomimetics: 7.8 µg/mL
A. baumannii 005; A. baumannii 005, value in brackets
  MIC of peptidomimetics: 4.7 µM
A. baumannii 006; [8]
  MIC of peptidomimetics: 7.8 µg/mL
A. baumannii 006; A. baumannii 006, value in brackets
  MIC of peptidomimetics: 4.7 µM
A. baumannii ATCC 19 606; [9]
  MIC of peptidomimetics: 7.8 µg/mL
A. baumannii ATCC 19 606; A. baumannii ATCC 19 606, value in brackets
  MIC of peptidomimetics: 4.7 µM
E. coli 0011; [10]
  MIC of peptidomimetics: 15.6 µg/mL
E. coli 0011; E. coli 0011, value in brackets
  MIC of peptidomimetics: 9.4 µM
En. cloacae 001; [11]
  MIC of peptidomimetics: 15.6 µg/mL
En. cloacae 001; En. cloacae 001, value in brackets
  MIC of peptidomimetics: 9.4 µM
En. cloacae 005; [12]
  MIC of peptidomimetics: 15.6 µg/mL
En. cloacae 005; En. cloacae 005, value in brackets
  MIC of peptidomimetics: 9.4 µM
[3]; [13]
  MIC of peptidomimetics: 31.25 µg/mL
[3]; Enteroc. faecalis NCTC 13 379, value in brackets
  MIC of peptidomimetics: 18.8 µM
K. pneumoniae JIE2713; [14]
  MIC of peptidomimetics: 62.5 µg/mL
K. pneumoniae JIE2713; K. pneumoniae JIE2713, value in brackets
  MIC of peptidomimetics: 37.7 µM
K. pneumoniae JIE4212; [15]
  MIC of peptidomimetics: 15.6 µg/mL
K. pneumoniae JIE4212; K. pneumoniae JIE4212, value in brackets
  MIC of peptidomimetics: 9.4 µM
P. aeruginosa AR-1270; [16]
  MIC of peptidomimetics: 31.3 µg/mL
P. aeruginosa AR-1270; P. aeruginosa AR-1270, value in brackets
  MIC of peptidomimetics: 18.8 µM
S. aureus 105; [17]
  MIC of peptidomimetics: 7.8 µg/mL
S. aureus 105; S. aureus 105, value in brackets
  MIC of peptidomimetics: 4.7 µM
S. aureus 117; [18]
  MIC of peptidomimetics: 7.8 µg/mL
S. aureus 117; S. aureus 117, value in brackets
  MIC of peptidomimetics: 4.7 µM
S. aureus 38; [19]
  MIC of peptidomimetics: 7.8 µg/mL
S. aureus 38; S. aureus 38, value in brackets
  MIC of peptidomimetics: 4.7 µM
C. auris CBS10913; [20]
  MIC against C. auris: 31.25 µg/mL
C. auris CBS10913; CBS 10 913, value in brackets
  MIC against C. auris: 18.8 µM

## CCCCCCCCCCNCC(=O)N(CCCCN)CC(=O)N(CC(=O)N(CC(=O)N(CCCCN)CC(=O)N(CC(=O)N(CC(N)=O)[C@@H](C)c1ccccc1)[C@@H](C)c1ccccc1)[C@@H](C)c1ccccc1)[C@@H](C)c1ccccc1 [TM8] (H-[NDecylGly][Nlys][Nspe][Nspe][Nlys][Nspe][Nspe]-NH2)
C. auris CBS12373; [4]
  MIC against C. auris: 3.9 µg/mL
C. auris CBS12373; CBS12373
  MIC90: 15.6 µg/mL (≈ 14 µM)
  MIC against C. auris: 3.5 µM
[1]
  Geometric mean MIC, all bacteria: 7.3 µg/mL
[1]; value in brackets
  Geometric mean MIC, all bacteria: 6.6 µM
Enterobacteriaceae
  Geometric mean MICE: 11.0 µg/mL
MBL-producing bacteria
  Geometric mean MICMBL: 7.8 µg/mL
[2]
  HD10 (10% haemolytic dose): 7.2 µmol/L
  HD50 (50% haemolytic dose): 24.4 µmol/L
[2]; red cells of horse, 4 h
  HD10 (10% haemolytic dose): 8 µg/mL
  HD50 (50% haemolytic dose): 27.2 µg/mL
A. baumannii 005; 005
  MIC of peptidomimetics: 7.0 µM
A. baumannii 005; [7]
  MIC of peptidomimetics: 7.8 µg/mL
A. baumannii 006; 006
  MIC of peptidomimetics: 3.5 µM
A. baumannii 006; [8]
  MIC of peptidomimetics: 3.9 µg/mL
A. baumannii ATCC 19 606; [9]
  MIC of peptidomimetics: 3.9 µg/mL
A. baumannii ATCC 19 606; ATCC 19
  MIC of peptidomimetics: 3.5 µM
E. coli 0011; 0011
  MIC of peptidomimetics: 14.0 µM
E. coli 0011; [10]
  MIC of peptidomimetics: 15.6 µg/mL
En. cloacae 001
  MIC of peptidomimetics: 7.0 µM
En. cloacae 001; [11]
  MIC of peptidomimetics: 7.8 µg/mL
En. cloacae 005
  MIC of peptidomimetics: 14.0 µM
En. cloacae 005; [12]
  MIC of peptidomimetics: 15.6 µg/mL
[3]; [13]
  MIC of peptidomimetics: 7.8 µg/mL
[3]; NCTC 13
  MIC of peptidomimetics: 7.0 µM
K. pneumoniae JIE2713; JIE2713
  MIC of peptidomimetics: 14.0 µM
K. pneumoniae JIE2713; [14]
  MIC of peptidomimetics: 15.6 µg/mL
K. pneumoniae JIE4212; JIE4212
  MIC of peptidomimetics: 7.0 µM
K. pneumoniae JIE4212; [15]
  MIC of peptidomimetics: 7.8 µg/mL
P. aeruginosa AR-1270; AR-1270
  MIC of peptidomimetics: 14.0 µM
P. aeruginosa AR-1270; [16]
  MIC of peptidomimetics: 15.6 µg/mL
S. aureus 105; 105
  MIC of peptidomimetics: 3.5 µM
S. aureus 105; [17]
  MIC of peptidomimetics: 3.9 µg/mL
S. aureus 117; 117
  MIC of peptidomimetics: 3.5 µM
S. aureus 117; [18]
  MIC of peptidomimetics: 3.9 µg/mL
S. aureus 38; 38
  MIC of peptidomimetics: 3.5 µM
S. aureus 38; [19]
  MIC of peptidomimetics: 3.9 µg/mL
C. auris CBS10913; [20]
  MIC against C. auris: 7.8 µg/mL
C. auris CBS10913; CBS10913
  MIC against C. auris: 7.0 µM
  MIC at high cell density: 15.6 µg/mL (≈ 14 µM)
